Key:
[1] = biological target: T1, Solute carrier organic anion transporter family member 1B1 (Homo sapiens, UniProt Q9Y6L6)
T1 sequence (Q9Y6L6 whole entry): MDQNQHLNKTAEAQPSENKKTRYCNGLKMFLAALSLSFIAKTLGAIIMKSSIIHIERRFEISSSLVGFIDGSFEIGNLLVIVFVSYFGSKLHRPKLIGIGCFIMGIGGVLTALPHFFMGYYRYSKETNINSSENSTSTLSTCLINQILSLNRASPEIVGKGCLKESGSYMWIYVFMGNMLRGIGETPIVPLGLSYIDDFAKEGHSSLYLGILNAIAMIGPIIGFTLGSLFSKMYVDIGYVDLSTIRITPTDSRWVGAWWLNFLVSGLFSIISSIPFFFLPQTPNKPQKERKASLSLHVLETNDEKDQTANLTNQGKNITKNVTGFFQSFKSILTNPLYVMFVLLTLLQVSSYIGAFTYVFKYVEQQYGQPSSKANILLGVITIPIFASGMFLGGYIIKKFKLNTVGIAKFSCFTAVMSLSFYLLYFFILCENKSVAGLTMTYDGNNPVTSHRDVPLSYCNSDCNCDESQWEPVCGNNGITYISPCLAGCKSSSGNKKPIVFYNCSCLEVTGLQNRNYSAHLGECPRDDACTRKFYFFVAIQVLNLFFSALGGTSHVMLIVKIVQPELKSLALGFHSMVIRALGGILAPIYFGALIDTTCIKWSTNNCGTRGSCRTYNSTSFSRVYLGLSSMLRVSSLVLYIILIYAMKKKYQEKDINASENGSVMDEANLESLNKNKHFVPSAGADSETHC

[2] = biological target: T1, Solute carrier organic anion transporter family member 1B1; remark: listed apart in the source
[3] = biological target: T2, Solute carrier organic anion transporter family member 1B3 (Homo sapiens, UniProt Q9NPD5)
T2 sequence (Q9NPD5 whole entry): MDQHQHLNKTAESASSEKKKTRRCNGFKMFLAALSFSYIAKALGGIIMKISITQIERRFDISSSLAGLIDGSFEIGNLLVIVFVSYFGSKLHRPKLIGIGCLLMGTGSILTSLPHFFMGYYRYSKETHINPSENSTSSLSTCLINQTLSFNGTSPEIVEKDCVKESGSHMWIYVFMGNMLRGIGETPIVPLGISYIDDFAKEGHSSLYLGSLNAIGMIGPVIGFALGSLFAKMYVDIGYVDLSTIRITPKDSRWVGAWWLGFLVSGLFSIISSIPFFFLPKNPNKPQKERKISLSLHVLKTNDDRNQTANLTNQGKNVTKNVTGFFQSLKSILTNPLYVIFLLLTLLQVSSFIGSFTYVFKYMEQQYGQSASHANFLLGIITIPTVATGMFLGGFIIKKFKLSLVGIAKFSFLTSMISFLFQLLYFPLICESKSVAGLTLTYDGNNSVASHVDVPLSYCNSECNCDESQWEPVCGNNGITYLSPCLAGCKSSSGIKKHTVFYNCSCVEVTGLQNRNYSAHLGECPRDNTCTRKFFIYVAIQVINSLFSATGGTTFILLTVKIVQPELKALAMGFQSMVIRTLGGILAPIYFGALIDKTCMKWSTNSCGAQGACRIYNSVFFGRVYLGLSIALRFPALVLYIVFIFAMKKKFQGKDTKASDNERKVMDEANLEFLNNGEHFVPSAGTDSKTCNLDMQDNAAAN

[4] = biological target: T2, Solute carrier organic anion transporter family member 1B3; remark: listed apart in the source
[5] = biological target: T1, Solute carrier organic anion transporter family member 1B1; conditions: chinese hamster, cho, 10 µM
[6] = biological target: T2, Solute carrier organic anion transporter family member 1B3; conditions: chinese hamster, cho, 10 µM

IC50 [1] [nM] | Ki [2] [nM] | IC50 [3] [nM] | Ki [4] [nM] | residual activity [5] [%] | residual activity [6] [%] | Compound
1150 | 630 | 550 | 420 | 10.9 | 1.823 | Cc1cc(O)c(C=O)c2c1C(=O)Oc1c(C)c(O)c3c(c1O2)C(O)OC3=O (centres undefined) [NORSTICTIC ACID]
977 | 540 | 977 | 750 | 15.39 | 9.702 | CCCc1nc(C(C)(C)O)c(C(=O)OCc2oc(=O)oc2C)n1Cc1ccc(-c2ccccc2-c2nnn[nH]2)cc1 [OLMESARTAN MEDOXOMIL]
6170 | 3370 | 4270 | 3270 | 54.77 | 46.89 | COc1cc(C2Oc3cc([C@H]4Oc5cc(O)cc(O)c5C(=O)[C@@H]4O)ccc3OC2CO)ccc1O (some centres undefined) [SILIBININ]
2630 | 1460 | 4170 | 3230 | 18.66 | 10.59 | O=C(OC[C@H]1O[C@@H](OC(=O)c2cc(O)c(O)c(OC(=O)c3cc(O)c(O)c(O)c3)c2)[C@H](OC(=O)c2cc(O)c(O)c(OC(=O)c3cc(O)c(O)c(O)c3)c2)[C@@H](OC(=O)c2cc(O)c(O)c(OC(=O)c3cc(O)c(O)c(O)c3)c2)[C@@H]1OC(=O)c1cc(O)c(O)c(OC(=O)c2cc(O)c(O)c(O)c2)c1)c1cc(O)c(O)c(OC(=O)c2cc(O)c(O)c(O)c2)c1 [TANNIC ACID]
1410 | 780 | 3390 | 2610 | 11.04 | 11.66 | C/C=C(\C)C(=O)O[C@H]1[C@H](OC(C)=O)[C@@]2(CO)C(CC1(C)C)C1=CC[C@@H]3[C@@]4(C)CC[C@H](O[C@@H]5O[C@H](C(=O)O)[C@@H](O[C@@H]6O[C@H](CO)[C@@H](O)[C@H](O)[C@H]6O)[C@H](O)[C@H]5O[C@@H]5O[C@H](CO)[C@@H](O)[C@H](O)[C@H]5O)[C@H](CO)C4CC[C@@]3(C)[C@@]1(C)C[C@H]2O (stereo partly drawn) [beta-ESCIN]

Compound | IC50 [1] [nM] | Ki [2] [nM] | IC50 [3] [nM] | Ki [4] [nM] | residual activity [5] [%] | residual activity [6] [%]
C=C1[C@@H]([C@@]2(C)[C@@H](OC(C)=O)CC(=O)O[C@](C)(COC(C)=O)[C@@H]2C(=O)OC)[C@@H](OC=O)[C@H](OC(=O)[C@H](O)[C@H](C)CC)[C@@]2(C)[C@H](c3ccoc3)CC(=O)[C@]12O [PRIEURIANIN] | 2340 | 1280 | 3390 | 2630 | 22.79 | 25.49
C[C@H]1CC[C@@]2(OC1)O[C@H]1C[C@H]3[C@@H]4CC[C@@H]5C[C@@H](O)CC[C@]5(C)[C@H]4CC[C@]3(C)[C@H]1[C@@H]2C [SARSASAPOGENIN] | 245 | 130 | 105 | 80 | 50.78 | 25.69
COc1c(CC=C(C)C)c2c(c3oc(=O)c(-c4ccc(O)cc4)c(O)c13)C=CC(C)(C)O2 [SCANDENIN] | 1070 | 590 | 741 | 560 | 13.79 | 9.001
CCC(C)C(=O)O[C@@H]1C[C@@]2(C)[C@H](c3ccoc3)OC(=O)CC23OC2(C)O[C@]14[C@]1(C)[C@@H](CC(=O)OC)C5(C)CC1(O)[C@](O)(C5OC(=O)C1(C)OC1C)[C@@H](OC(C)=O)[C@]34O2 (some centres undefined) [UTILIN] | 676 | 380 | 776 | 600 | -3.778 | 2.658
